*1 amine or outer side, *2 acyl side, *3 side chain or, on linkers, in order; H or OH if unused. Where a SMILES comes first, the peptide text is derived from it. Side-chain parts run from the residue outwards. [ ]: non-standard residue; d: D form. The star is where a group is joined. γGlu = O=C(O)[C@H](CCC(=O)[*:2])N[*:1]; Stearoyl = CCCCCCCCCCCCCCCCCC(=O)*; Aib = CC(C)(N)C(=O)O
Columns and labels:
[1] = tested on: female diabetic dbdb-mice; experiment: 4 weeks of treatment on glucose, HbA1c and oral glucose tolerance in female diabetic dbdb-mice (method 4); assay type: in vivo
Experimental: 8 week old, female diabetic dbdb-mice of mean non-fasted glucose value of 14.5 mmol/l and a body weight of 37-40 g were used. Mice were individually marked and were adapted to housing conditions for at least one week.
7 days prior to study start, baseline values for non-fasted glucose and HbA1c were determined, 5 days prior to study start, mice were assigned to groups and cages (5 mice per cage, 10 per group) according to their HbA1c values to ensure even distribution of lower and higher values between groups (stratification).
Mice were treated for 4 weeks, by once daily subcutaneous administration 3 hours prior to the dark phase (6 pm to 6 am). Blood samples from a tail tip incision were obtained for HbA1c on study day 21 and oral glucose tolerance was assessed in the 4th week. Oral glucose tolerance test was done in the morning without prior extra compound administration to majorly assess the effect of chronic treatment and less of acute compound administration. Mice were fasted for 4 hours prior to oral glucose administration (2 g/kg, t=0 min). Blood samples were drawn prior to glucose administration and at 15, 30, 60, 90, 120, and 180 min thereafter. Feed was returned after the last blood sampling. Results are represented as change from baseline, glucose in mmol/l and HbA1c in %.
Statistical analyses are performed with Everstat Version 6.0 based on SAS by 1-way-ANOVA, followed by Dunnett's post-hoc test against vehicle-control. Differences are considered statistically significant at the p<0.05 level.

in vivo [2] = conditions: mouse, plasma, sc, 1 mg/kg
Experimental: Mice were dosed 1 mg/kg subcutaneously (s.c.). The mice were sacrificed and blood samples were collected after 0.25, 0.5, 1, 2, 4, 8, 16 and 24 hours post application. Plasma samples were analyzed after protein precipitation via liquid chromatography mass spectrometry (LC/MS). PK parameters and half-life were calculated using WinonLin Version 5.2.1 (non-compartment model).

[3] = biological target: T1, human glucagon receptor (hGLUC R) (Homo sapiens, UniProt P47871); experiment: cAMP response of HEK-293 cells stably expressing human glucagon receptor (HTRF); assay type: cell-based; conditions: EC50 hGLUC R, Table 7; cAMP formation
T1 construct: expressed in transfected cells; host or cells: HEK-293
T1 sequence (P47871 26-477): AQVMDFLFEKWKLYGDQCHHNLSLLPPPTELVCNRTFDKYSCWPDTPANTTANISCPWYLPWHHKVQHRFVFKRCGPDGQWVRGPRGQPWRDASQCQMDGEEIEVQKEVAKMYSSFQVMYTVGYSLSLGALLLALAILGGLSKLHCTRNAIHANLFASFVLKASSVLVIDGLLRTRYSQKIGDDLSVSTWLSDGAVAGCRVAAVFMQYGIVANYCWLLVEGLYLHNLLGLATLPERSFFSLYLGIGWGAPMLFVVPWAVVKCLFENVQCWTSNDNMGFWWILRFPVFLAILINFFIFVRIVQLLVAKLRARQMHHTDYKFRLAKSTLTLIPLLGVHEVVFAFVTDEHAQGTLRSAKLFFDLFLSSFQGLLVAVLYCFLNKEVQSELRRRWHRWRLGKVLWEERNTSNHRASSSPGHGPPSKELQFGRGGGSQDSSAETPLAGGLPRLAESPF
Experimental: (§1) cAMP content of cells was determined using a kit from Cisbio Corp. (cat. no. 62AM4PEC) based on HTRF (Homogenous Time Resolved Fluorescence). For preparation, cells were split into T175 culture flasks and grown overnight to near confluency in medium (DMEM/10% FBS). Medium was then removed and cells washed with PBS lacking calcium and magnesium, followed by proteinase treatment with accutase (Sigma-Aldrich cat. no. A6964). Detached cells were washed and resuspended in assay buffer (1×HBSS; 20 mM HEPES, 0.1% BSA, 2 mM IBMX) and cellular density determined. They were then diluted to 400000 cells/ml and 25 μl-aliquots dispensed into the wells of 96-well plates. For measurement, 25 μl of test compound in assay buffer was added to the wells, followed by incubation for 30 minutes at room temperature.

[4] = biological target: T2, human GLP-1 receptor (hGLP-1 R) (Homo sapiens, UniProt P43220); experiment: cAMP response of HEK-293 cells stably expressing human GLP-1 receptor (HTRF); assay type: cell-based; conditions: EC50 hGLP-1 R, Table 7; cAMP formation
T2 construct: expressed in transfected cells; host or cells: HEK-293
T2 sequence (P43220 24-463): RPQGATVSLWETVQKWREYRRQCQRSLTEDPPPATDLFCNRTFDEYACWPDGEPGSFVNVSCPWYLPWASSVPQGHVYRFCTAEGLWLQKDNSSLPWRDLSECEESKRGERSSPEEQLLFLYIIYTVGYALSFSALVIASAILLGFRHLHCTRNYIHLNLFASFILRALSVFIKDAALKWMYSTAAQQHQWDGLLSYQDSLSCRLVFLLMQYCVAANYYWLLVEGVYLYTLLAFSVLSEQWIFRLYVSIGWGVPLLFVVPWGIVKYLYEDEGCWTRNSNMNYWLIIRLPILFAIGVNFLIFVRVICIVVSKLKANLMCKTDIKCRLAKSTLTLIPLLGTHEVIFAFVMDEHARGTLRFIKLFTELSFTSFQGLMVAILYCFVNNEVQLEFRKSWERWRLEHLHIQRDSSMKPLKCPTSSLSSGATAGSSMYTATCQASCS
Experimental: as §1

plasmin = experiment: Enzymatic stability testing versus plasmin; assay type: in vitro ADME; conditions: human, human recombinant plasmin, pH 8.3; % of degradation after 120 min; 2 μM peptide, 37° C.; read-out: Lability versus enzymatic degradation, Plasmin
Experimental: (§2) The reaction was stopped by addition of ethanol. The samples were analyzed by LC-MS/MS. […] The metabolic lability is given as % of degradation.

[5] = Chemical stability in solution, 7 days at 25° C. (% remaining peptide); assay type: physicochemical; conditions: % remaining peptide after 7 days at 25° C.
Excerpt: The chemical stability is expressed as “% remaining peptide”.

[6] = biological target: T3, human GIP receptor (hGIP R) (Homo sapiens, UniProt P48546); experiment: cAMP response of HEK-293 cells stably expressing human GIP receptor (HTRF); assay type: cell-based
T3 construct: expressed in transfected cells; host or cells: HEK-293
T3 sequence (P48546 22-466): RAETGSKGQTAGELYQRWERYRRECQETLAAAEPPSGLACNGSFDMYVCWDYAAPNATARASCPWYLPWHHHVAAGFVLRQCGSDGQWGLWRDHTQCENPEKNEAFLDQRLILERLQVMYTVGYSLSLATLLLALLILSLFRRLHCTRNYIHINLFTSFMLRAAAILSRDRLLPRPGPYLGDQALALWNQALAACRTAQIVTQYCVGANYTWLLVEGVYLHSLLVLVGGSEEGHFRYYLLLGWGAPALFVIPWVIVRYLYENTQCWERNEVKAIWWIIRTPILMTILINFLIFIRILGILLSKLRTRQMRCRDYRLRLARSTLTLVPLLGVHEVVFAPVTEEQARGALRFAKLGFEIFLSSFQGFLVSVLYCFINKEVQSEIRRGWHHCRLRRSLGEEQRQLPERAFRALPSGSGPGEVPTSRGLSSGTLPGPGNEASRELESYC
Experimental: as §1

female NMRI-mice = experiment: Automated assessment of 22-hours feed intake in female NMRI-mice; assay type: in vivo
Experimental: Female NMRI-mice of a body weight between 20 and 30 g were used. Mice were adapted to housing conditions for at least one week and for at least one day single-caged in the assessment equipment, when basal data were recorded simultaneously. On the study day, test product was administered subcutaneously close to the lights-off phase (12 h lights off) and assessment of feed consumption was directly started afterwards. Assessment included continued monitoring over 22 hours, while data are processed as mean over every 30 min. Repetition of this procedure over several days was possible. Restriction of assessment to 22 hours was for practical reasons to allow for reweighing of animals, refilling of feed and water and drug administration between procedures. Results could be assessed as cumulated data over 22 hours or differentiated to 30 min intervals.
Statistical analyses were performed with Everstat 6.0 by two-way ANOVA on repeated measures and Dunnett's post-hoc analyses. Differences were considered statistically significant at the p<0.05 level.
Lights-off phase (dark phase) started 4 hours later.

in vivo [7] = conditions: female, Gottinger, minipig, plasma, sc, 0.1 mg/kg
Experimental: Female Gottinger minipigs were dosed 0.1 mg/kg subcutaneously (s.c.). Blood samples were collected after 0.25, 0.5, 1, 2, 4, 8, 24, 32, 48, 56 and 72 hours post application. Plasma samples were analyzed after protein precipitation via liquid chromatography mass spectrometry (LC/MS). PK parameters and half-life were calculated using WinonLin Version 5.2.1 (non-compartment model).

α-chymotrypsin = experiment: Enzymatic stability testing versus α-chymotrypsin; assay type: in vitro ADME; conditions: human, human recombinant α-chymotrypsin, pH 8.3; % of degradation after 120 min; 2 μM peptide, 37° C.; read-out: Lability versus enzymatic degradation, α-Chymotrypsin
Experimental: as §2

[8] = 10 μg/kg s.c. once daily, p<0.05

CCCCCCCCCCCCCCCCCC(=O)N[C@@H](CCC(=O)NCCCC[C@H](NC(=O)[C@H](CCC(N)=O)NC(=O)[C@@H](NC(=O)[C@H](CO)NC(=O)[C@H](CC(C)C)NC(=O)[C@H](CC(=O)O)NC(=O)[C@H](CO)NC(=O)[C@@H](NC(=O)[C@H](Cc1ccccc1)NC(=O)[C@@H](NC(=O)CNC(=O)[C@H](CCC(=O)O)NC(=O)C(C)(C)NC(=O)[C@@H](N)Cc1ccc(O)cc1)[C@@H](C)O)[C@@H](C)O)[C@@H](C)CC)C(=O)N[C@@H](CCC(=O)O)C(=O)N[C@@H](CCC(=O)O)C(=O)N[C@@H](CCC(=O)O)C(=O)N[C@@H](C)C(=O)N[C@H](C(=O)N[C@@H](CCCNC(=N)N)C(=O)N[C@@H](CC(C)C)C(=O)N[C@@H](Cc1ccccc1)C(=O)N[C@H](C(=O)N[C@@H](CCC(=O)O)C(=O)N[C@@H](Cc1c[nH]c2ccccc12)C(=O)N[C@@H](CC(C)C)C(=O)N[C@@H](CCCCN)C(=O)N[C@@H](C)C(=O)NCC(=O)NCC(=O)N1CCC[C@H]1C(=O)N[C@@H](CO)C(=O)N[C@@H](CO)C(=O)NCC(=O)N[C@@H](C)C(=O)N1CCC[C@H]1C(=O)N1CCC[C@H]1C(=O)N1CCC[C@H]1C(=O)N[C@@H](CO)C(N)=O)[C@@H](C)CC)C(C)C)C(=O)O [SEQ ID NO: 10, Y-Aib-E-G-T-F-T-S-D-L-S-I-Q-K(γE-x70)-EEEAVRLFIEWLKAGGPSSGAPPPS-NH2] (H-Y[Aib]EGTFTSDLSIQK([γGlu-Stearoyl])EEEAVRLFIEWLKAGGPSSGAPPPS-NH2)
non-fasted glucose compared to vehicle control ([1]; 10 μg/kg s.c. once daily): tended to reduce non-fasted glucose
HbA1c compared to vehicle control [1, 8]: prevented an increase of HbA1c in a statistical significant manner
reduction of AUC under the glucose curve compared to vehicle control [1, 8]: reached statistical significance
oral glucose tolerance ([1]; 3 and 10 μg/kg s.c. once daily): improved oral glucose tolerance
Cmax (in vivo [2]): 5740 ng/mL
half-life (in vivo [2]): 4.3 h
EC50 [3]: > 1000 nM
EC50 [4]: 0.0125 nM
metabolised at 2 h, 2 μM (plasmin): 0%
Stability (pH 4.5) ([5]; pH 4.5): 99.0%
Stability (pH 7.4) ([5]; pH 7.4): 97.0%
EC50 [6]: 0.0067 nM
reduction of feed intake after 22 hours (female NMRI-mice; 3 μg/kg s.c., not significant, p=0.78): 19%
reduction of feed intake after 22 hours (female NMRI-mice; 10 μg/kg s.c., p=0.049): 34%
Cmax (in vivo [7]): 588 ng/mL
half-life (in vivo [7]): 20.1 h
metabolised at 2 h, 2 μM (α-chymotrypsin): 48%
